According to article PMC8249445, “Complex effects of macrolide venturicidins on bacterial F-ATPases likely contribute to their action as antibiotic adjuvants” (Scientific Reports, 2021):
Read-outs that look alike come from different tables or passages of the source.

Key:
[1] = target: T1, FOF1-ATPase of WT E. coli membranes (Escherichia coli, UniProt P68699); experiment: biochemical; format: biochemical; details: for ATPase rate, Early / ATPase rate, Late / Late/early ratio: 10 µM ventA final; for Ki: VentA at half-max. inhibition (Ki), early inhibition
T1 construct: To express haploid levels of EcFOF1 containing WT-ε or ε88-stop; expressed in transfected cells; host or cells: E. coli strain XH1 (chromosomal atpC deletion) carrying pMBε1; inverted membrane vesicles
Description: ATP hydrolysis is enzyme-coupled to conversion of NADH to NAD^+, which results in decreased light absorbance; thus, a larger rate of ATP hydrolysis is indicated by a steeper downward slope. The system also rapidly regenerates ATP, minimizing the concentration of product ADP during the assay. Unless noted, assays were preincubated to establish a steady state hydrolysis rate (see “Methods”) before the ‘zero’ point of measurements.
(§1) Plasmid pXH302S, which encodes the WT atpC gene and expresses near haploid levels of the ε subunit, was subjected to fusion PCR mutagenesis to construct plasmid pMBε1, with an N-terminal affinity tag ([…]) added prior to the initial Met residue. To express the ε88-stop subunit, an AfeI-ScaI restriction fragment of WT pMBε1 was replaced by the analogous fragment from pH6ε88-stop[46]. To express haploid levels of EcFOF1 containing WT-ε or ε88-stop, the appropriate version of pMBε1 was transformed into E. coli strain XH1, which has a chromosomal deletion of the atpC gene for ε[54]. For these transformed strains, cultures were grown and inverted membrane vesicles (IMV) were prepared according to [55]. WT ε, with the same N-terminal His6-tag, was over-expressed from pH6ε and purified as described.
ATP hydrolysis by membrane vesicles was assayed spectrophotometrically[57] at 30 °C using an open-chamber, diode array spectrophotometer (Hewlett Packard 8453 UV–Vis) as described in[29]. The assay medium (1 ml per assay) contained 20 mM Mops/Tris, pH 8.0, 0.2 mM EDTA, 10 mM CH3COOK, 1 mM ATP, 3.2 mM Mg(CH3COO)2, 1 mM phosphoenolpyruvate, at least 0.3 mM NADH, 0.1 mg/ml pyruvate kinase, 0.1 mg/ml lactate dehydrogenase, 5 mM KCN, and 5 μM carbonyl cyanide 4-(trifluoromethoxy)-phenylhydrazone. […] To avoid interference of this increase with the changes of ATPase activity induced by venturicidins, unless indicated otherwise, measurement of ATPase activities were started 60 min after addition of membranes to the complete assay medium. […] To keep absorbance between 1.5 and 2 units after the 60-min preincubation, up to 0.2 mM additional NADH was added to the assay medium. In figures displaying activity traces, some traces are shifted vertically for visual clarity.

[2] = target: T2, E. coli membranes with FOF1 lacking the ε subunit's CTD (ε88-stop) (Escherichia coli, UniProt P68699); experiment: ATP hydrolysis by ε88-stop E. coli membranes, enzyme-coupled spectrophotometric assay; format: biochemical; details: for Ki: VentA at half-max. inhibition (Ki), early inhibition; for ATPase at saturating ventA (y0) / VentA-sensitive ATPase (y1): best fit of early rates
T2 construct: To express haploid levels of EcFOF1 containing WT-ε or ε88-stop; expressed in transfected cells; host or cells: E. coli strain XH1 (chromosomal atpC deletion) carrying the ε88-stop version of pMBε1; inverted membrane vesicles
Excerpt: We next investigated whether the ε-inhibited state of EcFOF1 also impacts interactions of ventA with the enzyme. The N-terminal domain (NTD) of ε is required for FOF1 assembly and functional coupling of F1 to FO in eukaryotic and bacterial species; the C-terminal domain (CTD) of ε can auto-inhibit FOF1 and isolated F1 from some bacteria and from chloroplasts, but the mitochondrial homolog (δ) is not inhibitory[39],[40]. Thus we measured the effects of ventA on ATPase activity of E. coli membranes expressing ε88-stop, which lacks the autoinhibitory εCTD (Fig. 3). From Table 1 (100% ATPase values), it is clear that selenite activates membrane ATPase more (fourfold) for ε88-stop than for WT (2.8-fold). This is because, without the inhibitory εCTD, more enzyme complexes shift to the MgADP-inhibited state, which can be activated by selenite. […] In contrast, early inhibition of ATPase by ventA has similar Ki values for WT and ε88-stop membranes in the absence (0.7 vs 0.5 μM) or in the presence of selenite (0.23 vs 0.09 μM).
as §1
ATP hydrolysis by membrane vesicles was assayed spectrophotometrically[57] at 30 °C using an open-chamber, diode array spectrophotometer (Hewlett Packard 8453 UV–Vis) as described in[29]. The assay medium (1 ml per assay) contained 20 mM Mops/Tris, pH 8.0, 0.2 mM EDTA, 10 mM CH3COOK, 1 mM ATP, 3.2 mM Mg(CH3COO)2, 1 mM phosphoenolpyruvate, at least 0.3 mM NADH, 0.1 mg/ml pyruvate kinase, 0.1 mg/ml lactate dehydrogenase, 5 mM KCN, and 5 μM carbonyl cyanide 4-(trifluoromethoxy)-phenylhydrazone. As noted before, the rate of ATP hydrolysis by membranes increases to a small degree during assays. This is due, at least in part, to dissociation of a small fraction of EcF1 and/or ε from the membranes, since the increase is inhibited by added ε (e.g., Fig. 5). To avoid interference of this increase with the changes of ATPase activity induced by venturicidins, unless indicated otherwise, measurement of ATPase activities were started 60 min after addition of membranes to the complete assay medium. This minimizes further increases in ATPase rate during control assays to < 15%. To keep absorbance between 1.5 and 2 units after the 60-min preincubation, up to 0.2 mM additional NADH was added to the assay medium. In figures displaying activity traces, some traces are shifted vertically for visual clarity.

mitoFOF1 = tested on: mitoFOF1; set-up: method as in PMID 124668; details: cited from earlier work
S. aureus (MRSA) strains = details: cited from earlier work
[3] = preincubation +MgATP, no ventA, selenite
[4] = preincubation No MgATP, +ventA (trace 2), 40 mM selenite
[5] = WT + 6 μM azide (Fig. 2C), best fit of early rates
[6] = WT + 38.5 mM selenite (Fig. 2B), best fit of early rates
[7] = ε88stop + 38.5 mM selenite (Fig. 3B)

CCC(=O)C(C)C(O)C(C)CC(C)C1OC(=O)CC2(O)CC=C(C)C(O2)C(C)=CCCCC(OC2CC(OC(N)=O)C(O)C(C)O2)C=CC(C)CC1C (stereo not drawn) [ventA, venturicidin A]
Late rate (last 3 min of assay) ([1]; 9.5 μM ventA, 38.5 mM selenite (Fig. 5A #3)): 2.7 U/mg
Rate during 100 s immediately before adding ε ([1]; 9.5 μM ventA, 38.5 mM selenite (Fig. 5A trace #4)): 2.5 U/mg
ATPase rate, Early [1, 3]: 1.27 U/mg
ATPase rate, Late [1, 3]: 2.97 U/mg
Late/early ratio [1, 3]: 2.34
ATPase rate, Early [1, 4]: 1.22 U/mg
ATPase rate, Late [1, 4]: 2.93 U/mg
Late/early ratio [1, 4]: 2.40
Decrease of initial ATPase rate ([1]; 30 min preincubation with 10 μM ventA without ATP, selenite present): about 40%
Ki ([1]; WT + 6 μM azide (Fig. 2C)): 1700 nM
Ki ([1]; WT + 38.5 mM selenite (Fig. 2B)): 230 nM
Ki ([1]; WT, alone (Fig. 2A)): 700 nM
ATPase at saturating ventA (y0) [1, 5]: 36% (± 4)
VentA-sensitive ATPase (y1) [1, 5]: 106% (± 5)
ATPase at saturating ventA (y0) [1, 6]: 53% (± 1)
VentA-sensitive ATPase (y1) [1, 6]: 46% (± 2)
Sensitivity to immediate inhibition, selenite vs azide ([1]; WT EcFOF1, MgADP-inhibited state minimized by selenite vs increased by azide): ~ sevenfold
Increase of early Ki value by azide ([1]; WT, 6 µM azide vs none): 2.4 fold
ATPase at saturating ventA (y0) ([1]; WT, alone (Fig. 2A), best fit of early rates): 47% (± 2)
VentA-sensitive ATPase (y1) ([1]; WT, alone (Fig. 2A), best fit of early rates (within 1 min after adding ventA)): 80% (± 5)
Reduction of Ki for early inhibition by selenite ([1]; WT, with vs without selenite): threefold
Immediate increase in ATPase rate, first minute post-addition ([1]; lower ventA concentration (Fig. 1, trace 2), no effector): 11%
inhibition at 10 µM ([1]; read-out: Additional time-dependent inhibition): ~25%
ATPase activity during the last 3 min of assays ([1]; ventA added after 0.1 mM DCCD (trace 3, 15 μM ventA), no selenite): 0.49 (± 0.06) U/mg
ATPase activity during the last 3 min of assays ([1]; ventA added before 0.1 mM DCCD (trace 2, 10 μM ventA), no selenite): 0.53 (± 0.05) U/mg
ATPase activity during the last 3 min of assays ([1]; ventA after 0.1 mM DCCD (trace 3, 15 μM ventA), 38.5 mM selenite): 2.84 U/mg
ATPase activity during the last 3 min of assays ([1]; ventA before 0.1 mM DCCD (trace 2, 10 μM ventA), 38.5 mM selenite): 2.93 U/mg
Ki ([2]; ε88stop (Fig. 3A)): 500 nM
Ki [2, 7]: 90 nM
Ki for early inhibition lower in presence of selenite than in its absence ([2]; ε88-stop membranes): fivefold
ATPase at saturating ventA (y0) ([2]; ε88stop (Fig. 3A)): 37% (± 3)
VentA-sensitive ATPase (y1) ([2]; ε88stop (Fig. 3A)): 67% (± 4)
ATPase at saturating ventA (y0) [2, 7]: 37% (± 2)
VentA-sensitive ATPase (y1) [2, 7]: 66% (± 4)
Stimulation of solubilized ATPase (mitoFOF1; detergent-solubilized mitoFOF1): up to 3 fold
Inhibition of membrane ATPase (mitoFOF1; mitoFOF1 in membranes): 95%
Reduction of cellular ATP (S. aureus (MRSA) strains; 16 μg ventA/ml): ~ 40%
Concentration at which maximal effect on Δψ was achieved (S. aureus (MRSA) strains; MRSA strain tested further): 16 μg ventA/ml
Reduction of cellular ATP (S. aureus (MRSA) strains; fourfold greater ventA than 16 μg/ml): ~ 90%
